Columns and labels:
Type in all cases: functional
Parastagonospora nodorum [1] = assay: Antifungal activity against Phaeosphaeria nodorum on wheat plant at 25 ppm after 24 hr
Rhizoctonia solani = assay: Antifungal activity against Rhizoctonia solani on rice plant at 25 ppm after 24 hr
[2] = test system: Agrostis stolonifera var. palustris; assay: Herbicidal activity against Agrostis stolonifera var. palustris at 1 ppm after 9 days relative to control
Zymoseptoria tritici = assay: Antifungal activity against Zymoseptoria tritici on wheat plant at 25 ppm after 24 hr
[3] = test system: Blumeria graminis f. sp. tritici; assay: Antifungal activity against Blumeria graminis f. sp. tritici on wheat plant assessed as disease control at 100 ppm after 24 hr
Lemna minor = assay: Herbicidal activity against Lemna minor (common duckweed) at 1 ppm after 9 days relative to control
Parastagonospora nodorum [4] = assay: Antifungal activity against Phaeosphaeria nodorum on wheat plant assessed as disease control at 100 ppm after 24 hr
Phytophthora infestans = assay: microbe, parasite or virus in culture; conditions: in Oryza sativa, 24 h
Ustilago maydis = assay: Antifungal activity against Ustilago maydis on rice plant at 25 ppm after 24 hr; conditions: Mycosarcoma maydis
Puccinia recondita = assay: Antifungal activity against Puccinia recondita on wheat plant assessed as disease control at 100 ppm after 24 hr
Pyricularia oryzae = assay: microbe, parasite or virus in culture; conditions: 24 h

COc1cc2c(cc1OC)-c1cc3ccc(OC)c(O)c3c[n+]1CC2.[Cl-] [PALMATRUBINE]
0%: inhibition at 25 ppm (Parastagonospora nodorum [1]) | inhibition at 25 ppm (Rhizoctonia solani) | Activity [2] | inhibition at 25 ppm (Zymoseptoria tritici) | Activity [3] | Activity (Lemna minor) | Activity (Parastagonospora nodorum [4]) | inhibition at 25 ppm (Phytophthora infestans) | inhibition at 25 ppm (Ustilago maydis) | Activity (Puccinia recondita) | inhibition at 25 ppm (Pyricularia oryzae)

Reference: ChEMBL document CHEMBL3046565, “Fungicidal and herbicidal activities of berberine related alkaloids” (2000)
